# According to article PMC4128046, “Effect of a toggle switch mutation in TM6 of the human adenosine A3 receptor on Gi protein-dependent signalling and Gi-independent receptor internalization” (British Journal of Pharmacology, 2014):
# Experiments:
# A3-YFP = target: T1, A3-YFP (Homo sapiens, UniProt P0DMS8); assay: ERK1/2 phosphorylation assay (AlphaScreen SureFire), A3-YFP; type: cell-based; conditions: for Emax: read-out: Maximum response (% 10 μM NECA), pERK1/2 assay
# T1 construct: cDNA encoding the full length human A3 receptor; expressed in transfected cells
# T1 sequence (P0DMS8 1-318): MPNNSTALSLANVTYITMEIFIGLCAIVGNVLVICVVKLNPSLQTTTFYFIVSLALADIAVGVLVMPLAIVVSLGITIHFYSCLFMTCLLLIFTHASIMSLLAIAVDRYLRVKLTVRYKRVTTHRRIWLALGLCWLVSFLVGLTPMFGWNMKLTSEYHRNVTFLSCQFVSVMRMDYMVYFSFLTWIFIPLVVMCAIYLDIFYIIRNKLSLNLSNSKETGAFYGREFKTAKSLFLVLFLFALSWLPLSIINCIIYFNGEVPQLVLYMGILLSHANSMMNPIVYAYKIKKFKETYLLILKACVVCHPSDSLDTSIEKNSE
# Protocol: Normal growth medium was replaced with serum-free medium for at least 4 h before analysis. Levels of ERK1/2 phosphorylation were measured using the AlphaScreen SureFire p-ERK assay kit (PerkinElmer). […] Medium was removed from each well and replaced with 40 μL SureFire lysis buffer. After shaking for 5 min, a 1:80:20:120 v v^−1 dilution of AlphaScreen beads : lysate : activation buffer : reaction buffer in a 5.5 μL total volume was transferred to a white opaque 384-well proxiplate in diminished light. After 2 h of incubation in the dark at room temperature, the fluorescence signal was measured with an EnVision plate reader (PerkinElmer) using standard AlphaScreen settings.
# A basal and FSK control was included in each separate concentration-response CRE-SPAP gene transcription assay and cAMP accumulation assay to allow the responses in each cell line to be expressed as an inhibition of FSK-stimulated SPAP production.
# SNAP-A3 = target: T2, SNAP-A3 (Homo sapiens, UniProt P0DMS8); assay: Confocal imaging of SNAP-tagged receptor internalization, SNAP-A3; type: cell-based; conditions: SNAP-A3 transiently expressed in CHO CRE-SPAP cells, BG-AF488 label, 10 μM agonist
# T2 construct: the methionine start signal was removed from cDNA encoding the full length A3; expressed in transfected cells; host or cells: CHO CRE-SPAP, transient (Fugene HD)
# T2 sequence (P0DMS8 2-318 limits assumed): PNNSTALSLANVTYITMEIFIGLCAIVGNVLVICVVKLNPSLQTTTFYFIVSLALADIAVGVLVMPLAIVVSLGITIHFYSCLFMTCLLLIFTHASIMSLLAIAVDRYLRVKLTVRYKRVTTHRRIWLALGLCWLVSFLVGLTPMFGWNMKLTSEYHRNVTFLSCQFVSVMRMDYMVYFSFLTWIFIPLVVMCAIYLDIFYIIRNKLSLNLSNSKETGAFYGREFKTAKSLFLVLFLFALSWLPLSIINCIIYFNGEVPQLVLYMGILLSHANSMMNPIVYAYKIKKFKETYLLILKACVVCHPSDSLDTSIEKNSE
# Protocol: CHO-K1 cells stably expressing a cAMP response element-secreted placental alkaline phosphatase (CRE-SPAP) reporter gene (CHO CRE-SPAP) under hygromycin selectivity and CHO-K1 cells stably expressing β-arrestin2-vYnL (CHO β-arrestin2-vYnL, a gift from Dr. N. Holliday, University of Nottingham, Nottingham, UK) were maintained in DMEM/F12 medium containing 10% FCS and 2 mM L-glutamine at 37°C in a humidified atmosphere of air/CO2 (19:1). […] Cell lines were initially screened for YFP or bimolecular fluorescence complementation (BiFC) fluorescence and CRE-SPAP cells lines were subsequently tested in the CRE-SPAP gene transcription assay. […]
# Live-cell BiFC imaging was performed on A3-vYc/β-arrestin2-vYnL and A3 W243F-vYc/β-arrestin2-vYnL cells grown in Nunc Labtek 8-well plates, and images obtained using a Zeiss 710 confocal microscope (Carl Zeiss GmbH, Jena, Germany) fitted with a 63× plan-Apochromat NA1.4 Ph3 oil-immersion objective. […] For both YFP, BiFC and BG-AF488 label, a 488 nm argon laser was used to excite the fluorophore and emission was detected using a BP505-530 filter. […] Images of A3-YFP and A3 W243F-YFP cells were taken with same pinhole diameter, laser power, gain and offset to allow comparison of YFP fluorescence. To obtain fluorescence intensity values, a region of interest was drawn around the plasma membrane of 10 cells per image in Zeiss AIM 4.2 software (Carl Zeiss GmbH).
Compound,Emax (A3-YFP),internalization of SNAP-tagged receptor seen in confocal images (SNAP-A3),"EC50 (A3-YFP; A3-YFP cells, 5 min stimulation, read-out: pEC50 (pERK1/2 assay) (converted))"
"CCNC(=O)[C@H]1O[C@@H](n2cnc3c(N)ncnc32)[C@H](O)[C@@H]1O [NECA, 5-(N-ethylcarboxamido)adenosine]",100%,clear punctate granules,
"CCCCC#Cc1nc(NC)c2ncn([C@@H]3O[C@H](CO)[C@@H](O)[C@H]3O)c2n1 [HEMADO, 2-(1-hexynyl)-N-methyladenosine]",120 ± 5.8%,clear punctate granules,1.91 nM
